Measured values published in US9868707B2, “Small molecule agonists of neurotensin receptor 1” (SANFORD-BURNHAM MEDICAL RESEARCH INSTITUTE, priority 2012, dated 2018).

Molecular target: NTR1 (Homo sapiens, UniProt P30989)
Assay: NTR1 high-content imaging (HCS) dose response, NTR1-U2OS cells
Assay type: cell-based
Set-up: host or cells: U2OS osteosarcoma
Conditions: n = 4 unless otherwise noted; for EC50: Ave. ± S.E.M., read-out: HCS NTR1 Potency EC50; for Emax: read-out: HCS NTR1 Potency Emax
Description: The cell lines utilized in the high-content imaging assays, which include the NTR1-, NTR2-, and GPR35-U2OS osteosarcomas, were obtained from the laboratory of Dr. Lawrence Barak at the Duke University Medical Center. The media used in the culture of the cell lines, as well as the assays themselves, consisted of Minimum Essential Medium (15-010-CM) and L-glutamine (25-005-CL) from Cellgro/Mediatech (Manassas, Va.), fetal bovine serum (SH30396.03) from Hyclone (Logan, Utah), penicillin-streptomycin solution (PS-20) from Omega Scientific in Tarzana, Calif., G418 (ant-gn-1) from Invivogen (San Diego, Calif.), and zeocin (R250-01) from Invitrogen (Carlsbad, Calif.). Cell lines were cultured in T225 tissue culture flasks (431082) supplied by Corning (Corning, N.Y.). Additional reagents employed include Dulbecco's Phosphate-Buffered Saline (DPBS) (21-031CV) from Cellgro/Mediatech, Trypsin-EDTA 0.05% (25300) from Invitrogen, paraformaldehyde (30528954) from Acros Organics (Geel, Belgium), Hoechst 33342 (H3570) from Invitrogen. The high-content assays were run in 1536-well plates (29326) supplied by Aurora Biotechnology (Poway, Calif.) and utilized aluminum plate seals (T592100) from E&K Scientific (Santa Clara, Calif.).
The neurotensin 1 peptide (N6383) from Sigma-Aldrich (St. Louis, Mo.) was used as a positive control in the NTR1 primary HCS assay. For the NTR2 selectivity assay, the non-specific, small molecule 3-(4-fluorophenyl)-7,8-dimethoxy-5-(4-methylbenzyl)-5H-pyrazolo[4,3-c]quinolone which was synthesized internally was used as a positive control. The GPR35 selectivity screen utilized zaprinast (ALX430-020-M010) from Alexis Biochemicals (Farmingdale, N.Y.) as a control.
The high-content imaging based NTR1 primary screen in 1536-well format was utilized to assay the MLSMR library of chemical entities in the following manner. On day one, 4 uL of a cell suspension containing 350,000 NTR1-U2OS cells per mL is added to each well of a 1536-well assay plate. Cells are plated in MEM medium containing 2.5% Fetal Bovine Serum, 1% Penicillin/Streptomycin solution, 1% L-Glutamine, 400 ug/mL G418, and 200 ug/mL Zeocin. The assay plates are then incubated overnight at 37° C., under 5% CO2. Following the overnight incubation, a volume of 60 nL of the compounds at 2 mM in DMSO (final 20 μM, 1% DMSO) was transferred to columns 5-48 of the assay plates using a LabCyte Echo Liquid Handler. Next, 60 nL of DMSO were dispensed to columns 1-4, which served as the positive and neutral control wells. […] The assay plates were centrifuged on an Eppendorf 5810 centrifuge at 1000 rpm for 1 min to ensure even liquid levels in the wells of the assay plates. The assay plates were then returned to the incubator for 1 hour. Following the hour-long incubation at 37° C., the cells in each well were fixed with 4 uL of 6% paraformaldehyde added with a Multidrop Combi. The assay plates were centrifuged as before and incubated at room temperature for 1 hour. On the Kalypsys, plates were then aspirated down to 2.5 uL per well and washed twice with 11 uL per well of DPBS, followed by a final aspiration to 2.5 uL per well. On the Combi dispenser, 5 uL of 5 ug/mL Hoechst 33342 diluted in DPBS was added to each well of assay plates. The plates were again centrifuged as previously described, sealed, and incubated for at least 1 hour prior to being loaded on a PerkinElmer Opera QEHS.
Image acquisition was performed with a 45 plate capacity loader/stacker and the following settings: 40×0.6 NA air objective, acquisition camera set to 2-by-2 binning for an image size of 688 by 512 pixels, beta-arrestin-GFP acquired using 488 nm laser excitation and 540/75 nm emission filters, DAPI (nuclei) using 365 nm Xenon lamp excitation and 450/50 nm emission filters, 3 fields per well. Image analysis was performed using the Acapella Spot Detection Algorithm. For analysis settings and the metrics employed in the data analyses, please refer to supplemental information.

Chain of NTR1 (P30989 whole entry, species assumed): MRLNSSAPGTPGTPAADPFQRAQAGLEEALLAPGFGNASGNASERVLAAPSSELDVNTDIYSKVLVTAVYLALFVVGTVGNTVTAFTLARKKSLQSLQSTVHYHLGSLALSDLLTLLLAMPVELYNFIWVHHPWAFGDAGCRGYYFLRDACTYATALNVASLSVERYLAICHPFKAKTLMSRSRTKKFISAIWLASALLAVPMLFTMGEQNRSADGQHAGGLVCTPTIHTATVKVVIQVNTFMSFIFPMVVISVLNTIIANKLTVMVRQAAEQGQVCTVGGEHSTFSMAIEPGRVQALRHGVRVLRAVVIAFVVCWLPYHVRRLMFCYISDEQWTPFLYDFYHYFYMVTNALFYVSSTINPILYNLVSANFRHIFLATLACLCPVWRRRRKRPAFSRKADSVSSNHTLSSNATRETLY

Row | EC50 | Emax | Compound
1 | 30 µM | 112% | COc1ccc2c(N3CCN(c4ccccc4OC)CC3)nc(C3CCC3)nc2c1 [Compound 335, 2-cyclobutyl-7-methoxy-4-(4-(2-methoxyphenyl)piperazin-1-yl)quinazoline]
2 | 33.7 ± 16.7 µM | 87% | COc1ccccc1N1CCN(c2nc(C3CCC3)nc3cc4c(cc23)OCO4)CC1 [Compound 337, 6-cyclobutyl-8-(4-(2-methoxyphenyl)piperazin-1-yl)-[1,3]dioxolo[4,5-g]quinazoline]
3 | 25.9 ± 13.7 µM | 74.3% | COc1cc2nc(CCN3CCN(c4ccccc4OC)CC3)nc(N3CCN(c4ccccc4OC)CC3)c2cc1OC [Compound 319, 6,7-dimethoxy-4-(4-(2-methoxyphenyl)piperazin-1-yl)-2-(2-(4-(2-methoxyphenyl)piperazin-1-yl)ethyl)quinazoline]
4 | 14.2 ± 1.2 µM | 96.9% | COc1cc2nc(CC3CC3)nc(N3CCN(c4ccccc4OC)CC3)c2cc1OC [Compound 317, 2-(cyclopropylmethyl)-6,7-dimethoxy-4-(4-(2-methoxyphenyl)piperazin-1-yl)quinazoline]
5 | 7.7 ± 1 µM | 100% | COc1cc2nc(C(C)C)nc(N3CCN(c4ccccc4OC)CC3)c2cc1OC [Compound 312, 2-isopropyl-6,7-dimethoxy-4-(4-(2-methoxyphenyl)piperazin-1-yl)quinazoline]
6 | 12.2 ± 2.5 µM | 70.5% | COc1cc2nc(C3CCC3)nc(N3CCN(c4ccccc4Cl)CC3)c2cc1OC [Compound 325, 4-(4-(2-chlorophenyl)piperazin-1-yl)-2-cyclobutyl-6,7-dimethoxyquinazoline]
7 | 25.5 ± 1.7 µM | 91.4% | COc1cc2nc(C3CCC3)nc(N3CCN(c4ccccn4)CC3)c2cc1OC [Compound 326, 2-cyclobutyl-6,7-dimethoxy-4-(4-(pyridin-2-yl)piperazin-1-yl)quinazoline]
8 | 22.8 ± 0.4 µM | 103% | COc1ccc(N2CCN(c3nc(C4CCC4)nc4cc(OC)c(OC)cc34)CC2)c(OC)c1 [Compound 330, 2-cyclobutyl-4-(4-(2,4-dimethoxyphenyl)piperazin-1-yl)-6,7-dimethoxyquinazoline]
9 | 20 ± 10.7 µM | 78% | COc1cc2nc(-c3ccccc3)nc(N3CCN(c4ccccc4OC)CC3)c2cc1OC [6,7-di-OMe; phenyl; 2-OMe, 2-phenyl-6,7-dimethoxy-4-(4-(2-methoxyphenyl)piperazin-1-yl)quinazoline]
10 | 34.9 ± 4.4 µM | 100% | COc1ccccc1CN1CCN(c2nc(C3CC3)nc3cc(OC)c(OC)cc23)CC1 [Compound 343, 2-cyclopropyl-6,7-dimethoxy-4-(4-(2-methoxybenzyl)piperazin-1-yl)quinazoline]
11 | 61.2 ± 5.2 µM | 100% | COc1cc2nc(C3CCC3)nc(N3CCN(c4c(C)cccc4C)CC3)c2cc1OC [Compound 331, 2-cyclobutyl-4-(4-(2,6-dimethylphenyl)piperazin-1-yl)-6,7-dimethoxyquinazoline]
12 | 75.4 ± 1.1 µM | 100% | COc1cc2nc(C3CCC3)nc(N3CCN(c4ccccc4[N+](=O)[O-])CC3)c2cc1OC [Compound 327, 2-cyclobutyl-6,7-dimethoxy-4-(4-(2-nitrophenyl)piperazin-1-yl)quinazoline]
13 | > 80 µM |  | COc1cc2nc(-c3ccccc3)nc(N3CCN(c4ccc(F)cc4)CC3)c2cc1OC [6,7-di-OMe; phenyl; 4-F, 2-phenyl-6,7-dimethoxy-4-(4-(4-fluorophenyl)piperazin-1-yl)quinazoline]
14 | 13.8 ± 3.4 µM | 81.9% | COc1cc2nc(Cc3ccccc3)nc(N3CCN(c4ccccc4OC)CC3)c2cc1OC [Compound 309, 2-benzyl-6,7-dimethoxy-4-(4-(2-methoxyphenyl)piperazin-1-yl)quinazoline]
15 | 16.6 ± 1.7 µM | 100% | CCCc1nc(N2CCN(c3ccccc3OC)CC2)c2cc(OC)c(OC)cc2n1 [Compound 311, 6,7-dimethoxy-4-(4-(2-methoxyphenyl)piperazin-1-yl)-2-propylquinazoline]
16 | 19.8 ± 2.2 µM | 100% | COc1cc2nc(C3CC3)nc(N3CCN(c4ccccc4Cl)CC3)c2cc1OC [Compound 340, 4-(4-(2-chlorophenyl)piperazin-1-yl)-2-cyclopropyl-6,7-dimethoxyquinazoline]
17 | 17.7 ± 1 µM | 97.2% | COc1cc2nc(C3CCC3)nc(N3CCN(c4ccccc4F)CC3)c2cc1OC [Compound 324, 2-cyclobutyl-4-(4-(2-fluorophenyl)piperazin-1-yl)-6,7-dimethoxyquinazoline]
18 | 5.8 ± 1.5 µM | 92.8% | COc1cc2nc(C3CCCC3)nc(N3CCN(c4ccccc4OC)CC3)c2cc1OC [Compound 316, 2-cyclopentyl-6,7-dimethoxy-4-(4-(2-methoxyphenyl)piperazin-1-yl)quinazoline]
19 | 15.1 ± 1.5 µM | 96.3% | COc1cc2nc(CC(C)C)nc(N3CCN(c4ccccc4OC)CC3)c2cc1OC [Compound 313, 2-isobutyl-6,7-dimethoxy-4-(4-(2-methoxyphenyl)piperazin-1-yl)quinazoline]
20 | 67.7 ± 5.5 µM | 100% | COc1cc2nc(C3CC3)nc(N3CCN(C(=O)c4ccccc4OC)CC3)c2cc1OC [Compound 345, (4-(2-cyclopropyl-6,7-dimethoxyquinazolin-4-yl)piperazin-1-yl)(2-methoxyphenyl)methanone]
21 | 4.1 ± 0.5 µM | 95.7% | COc1ccc2nc(C3CC3)nc(N3CCN(c4ccccc4OC)CC3)c2c1 [Compound 338, 2-cyclopropyl-6-methoxy-4-(4-(2-methoxyphenyl)piperazin-1-yl)quinazoline]
22 | 10 ± 1.57 µM | 102% | COc1ccc2nc(C3CCC3)nc(N3CCN(c4ccccc4OC)CC3)c2c1 [Compound 334, 2-cyclobutyl-6-methoxy-4-(4-(2-methoxyphenyl)piperazin-1-yl)quinazoline]
23 | 6.1 ± 0.4 µM | 98.4% | CCOc1ccccc1N1CCN(c2nc(C3CC3)nc3cc(OC)c(OC)cc23)CC1 [Compound 339, 2-cyclopropyl-4-(4-(2-ethoxyphenyl)piperazin-1-yl)-6,7-dimethoxyquinazoline]
24 | 17.2 ± 1 µM | 74.9% | COc1cccc(N2CCN(c3nc(C4CCC4)nc4cc(OC)c(OC)cc34)CC2)c1 [Compound 328, 2-cyclobutyl-6,7-dimethoxy-4-(4-(3-methoxyphenyl)piperazin-1-yl)quinazoline]
25 | 22.6 ± 3.9 µM | 100% | COc1ccccc1N1CCN(c2nc(C3CCC3)nc3ccccc23)CC1 [Compound 336, 2-cyclobutyl-4-(4-(2-methoxyphenyl)piperazin-1-yl)quinazoline]

Row | Compound | EC50 | Emax
26 | COc1cc2nc(C3CC3)nc(N3CCN(Cc4ccc(C)cc4)CC3)c2cc1OC [Compound 342, 2-cyclopropyl-6,7-dimethoxy-4-(4-(4-methylbenzyl)piperazin-1-yl)quinazoline] | 25 ± 3.2 µM | 
27 | COc1cc2nc(C3CC3)nc(N3CCN(C(=O)c4ccccc4)CC3)c2cc1OC [Compound 344, (4-(2-cyclopropyl-6,7-dimethoxyquinazolin-4-yl)piperazin-1-yl)(phenyl)methanone] | 45.3 µM | 100%
28 | CCc1nc(N2CCN(c3ccccc3OC)CC2)c2cc(OC)c(OC)cc2n1 [Compound 310, 2-ethyl-6,7-dimethoxy-4-(4-(2-methoxyphenyl)piperazin-1-yl)quinazoline] | 42.6 ± 4.4 µM | 100%
